Test results: PMC12640937, “Integrating drug effects on individual cardiac ionic currents and cardiac action potentials to understand nonclinical translation to clinical ECG changes” (Frontiers in Pharmacology, 2025)
Several values for one entry are separate records, joined by “and”; a condition that tells them apart may be missing. Identical values can stand only once. Like-named read-outs stand apart in the source and are kept apart here.

Legend:
[1] = system: Ba2+ current through CaV1.2 channels; design: method as in Ren et al., 2022; settings: ∼37 °C; ref Ren et al., 2022; cited from earlier work
hERG [2] = settings: ref Crumb et al., 2016, cited from earlier work
[3] = system: IBa or Ba2+ current through CaV1.2 channels; settings: read-out: IBa (Ba2+ current through CaV1.2) IC50; prior study; 36 °C; ref Crumb et al., 2016; cited from earlier work
INaL (NaV1.5 channels) = settings: prior study, ref Crumb et al., 2016, cited from earlier work; for IC50: read-out: INaL IC50, veratridine, 36 °C
[4] = system: adult human primary ventricular trabeculae; assay: Action potential recordings from adult human ventricular trabeculae (sharp electrode)
[5] = system: adult human primary ventricular trabeculae; settings: mexiletine at 3X concentration as tested here; ref Qu et al., 2017; cited from earlier work
INaL = system: INaL; design: method as in Wu et al., 2019; settings: room temperature, ref Wu et al., 2019, cited from earlier work
[6] = system: hERG1a and hERG1a/1b channels; settings: cited from earlier work
[7] = used to calculate free Cmax; no reference given; cited from earlier work
hERG [8] = target: hERG (Homo sapiens, UniProt Q12809); assay: in vitro; settings: HEK293 cells stably expressing the hERG1a subunit, pH 7.4
[9] = target: hERG current (HEK293 cells expressing the hERG1a subunit) (Homo sapiens, UniProt Q12809); assay: cell-based
[10] = calculated with MW and protein binding; ref Johannesen et al., 2016; cited from earlier work
clinical ECG = settings: lidocaine or mexiletine co-administered with dofetilide; diltiazem with moxifloxacin; ref Johannesen et al., 2016; cited from earlier work
[11] = diltiazem 3.84 then 38.4 µM or nifedipine 0.23 then 1 µM, alone

hERG (Homo sapiens, UniProt Q12809), sequence (Q12809 whole entry): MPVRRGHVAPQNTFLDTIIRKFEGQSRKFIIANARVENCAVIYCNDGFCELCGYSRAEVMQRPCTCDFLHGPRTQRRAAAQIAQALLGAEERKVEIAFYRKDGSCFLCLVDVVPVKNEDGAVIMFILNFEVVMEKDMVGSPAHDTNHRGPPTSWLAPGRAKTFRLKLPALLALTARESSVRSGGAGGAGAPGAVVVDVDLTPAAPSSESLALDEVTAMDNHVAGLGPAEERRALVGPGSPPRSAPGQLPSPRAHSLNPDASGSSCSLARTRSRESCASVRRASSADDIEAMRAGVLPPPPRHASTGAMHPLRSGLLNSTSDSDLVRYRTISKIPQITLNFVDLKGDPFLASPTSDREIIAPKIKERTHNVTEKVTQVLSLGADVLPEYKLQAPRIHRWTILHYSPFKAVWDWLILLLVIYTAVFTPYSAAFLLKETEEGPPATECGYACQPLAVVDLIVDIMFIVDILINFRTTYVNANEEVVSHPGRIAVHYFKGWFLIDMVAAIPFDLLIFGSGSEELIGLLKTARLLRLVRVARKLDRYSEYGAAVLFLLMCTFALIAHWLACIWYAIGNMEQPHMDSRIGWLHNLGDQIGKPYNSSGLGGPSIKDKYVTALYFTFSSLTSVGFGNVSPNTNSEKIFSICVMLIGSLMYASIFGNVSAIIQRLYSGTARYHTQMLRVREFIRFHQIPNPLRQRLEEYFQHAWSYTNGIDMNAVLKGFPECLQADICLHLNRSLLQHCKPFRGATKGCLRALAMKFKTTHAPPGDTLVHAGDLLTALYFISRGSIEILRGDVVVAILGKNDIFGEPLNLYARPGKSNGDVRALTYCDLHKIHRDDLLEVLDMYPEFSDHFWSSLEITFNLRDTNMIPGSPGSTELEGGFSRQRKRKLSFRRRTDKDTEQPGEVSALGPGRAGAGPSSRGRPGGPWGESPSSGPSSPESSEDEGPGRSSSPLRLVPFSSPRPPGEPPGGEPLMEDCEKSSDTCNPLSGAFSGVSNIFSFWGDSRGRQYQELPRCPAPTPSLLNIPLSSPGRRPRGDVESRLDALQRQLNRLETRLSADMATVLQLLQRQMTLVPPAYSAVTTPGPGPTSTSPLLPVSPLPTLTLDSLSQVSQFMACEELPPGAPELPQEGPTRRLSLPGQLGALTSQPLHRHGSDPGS
hERG current (HEK293 cells expressing the hERG1a subunit), sequence (Q12809 whole entry): as above

For `COc1ccc([C@@H]2Sc3ccccc3N(CCN(C)C)C(=O)[C@@H]2OC(C)=O)cc1` [diltiazem], the IC50 [1] is listed as 0.8 µM, the “hERG current inhibition when 50% of CaV1.2 channels were blocked” value (hERG [2]; prior study) is listed as “no inhibition” and the IC50 [3] is listed as 0.112 µM. For the same compound, the “INaL inhibition when 50% of CaV1.2 channels were blocked” value (INaL (NaV1.5 channels)) was “no inhibition”, the IC50 (INaL (NaV1.5 channels)) was 24.5 µM and the AP triangulation [4, 11] was “resulting in AP triangulation”.
For `CN(CCOc1ccc(NS(C)(=O)=O)cc1)CCc1ccc(NS(C)(=O)=O)cc1` [dofetilide], the IC50 (hERG [2]; read-out: hERG IC50, prior study, 36 °C) is listed as […], the “AP triangulation (APD90 minus APD30)” value ([4]; dofetilide 0.1 µM alone, 1 Hz) is listed as “resulting in AP triangulation” and the AP triangulation ([4]; dofetilide in the presence of diltiazem or nifedipine) is listed as “induced AP triangulation”.
For `O=C(NCC1CCCCN1)c1cc(OCC(F)(F)F)ccc1OCC(F)(F)F` (stereo not shown) [flecainide], the AP height [5] is listed as “reduced AP height”.
In the case of `Nc1nnc(-c2cccc(Cl)c2Cl)c(N)n1` [lamotrigine], the AP height [5] is given as “reduced AP height”.
For `CCN(CC)CC(=O)Nc1c(C)cccc1C` [lidocaine], the IC50 (INaL; read-out: INaL IC50 obtained in ATX-II) is listed as 31.7 µM and the IC50 (INaL; read-out: INaL IC50 obtained in veratridine) is listed as 395 µM.
For `CCC(=O)C(CC(C)N(C)C)(c1ccccc1)c1ccccc1` (stereo not shown) [methadone], the “pharmacological difference between hERG1a and hERG1a/1b channels” value [6] is given as “no pharmacological differences”.
In the case of `Cc1cccc(C)c1OCC(C)N` (stereo not shown) [mexiletine], the AP height [5] is listed as “reduced AP height”, the “percent protein binding (PB)” value [7] is listed as 55% and the inhibition at 10 µM (hERG [8]) is listed as roughly 20%. For the same compound, the IC50 [9] was 55.6 µM, the hERG current inhibition (hERG [2]; 10 μM, highest concentration tested in prior study) was roughly 10% and the IC50 [3] was 38.2 µM. For the same compound, the IC50 (INaL (NaV1.5 channels)) was 9.3 µM and 9 µM, the “free clinical Cmax” value [10] was 3.6 µM and the “effect on hERG block-induced QTC and J-TpeakC prolongation” value (clinical ECG) was “shortened by co-administration”.
In the case of `C=CCN1CC[C@]23c4c5ccc(O)c4O[C@H]2C(=O)CC[C@@]3(O)[C@H]1C5` [naloxone], the “pharmacological difference between hERG1a and hERG1a/1b channels” value ([6]; ref Tran et al., 2020) is listed as “no pharmacological differences”.
For `O=C1CC[C@@]2(O)[C@H]3Cc4ccc(O)c5c4[C@@]2(CCN3CC2CC2)[C@H]1O5` [naltrexone], the “pharmacological difference between hERG1a and hERG1a/1b channels” value ([6]; ref Tran et al., 2020) is given as “no pharmacological differences”.
In the case of `COC(=O)C1=C(C)NC(C)=C(C(=O)OC)C1c1ccccc1[N+](=O)[O-]` [nifedipine], the AP triangulation [4, 11] is reported as “no AP triangulation”.
For `COc1ccccc1OCC(O)CN1CCN(CC(=O)Nc2c(C)cccc2C)CC1` (stereo not shown) [ranolazine], the AP height [5] is given as “did not”.
In the case of buprenorphine, the “pharmacological difference between hERG1a and hERG1a/1b channels” value [6] is listed as “no pharmacological differences”.
